According to ChEMBL document CHEMBL2021894, “The Discovery of VX-745: A Novel and Selective p38α Kinase Inhibitor” (ACS Med Chem Lett, 2011):
Activity calls are given as the source filed them. No cut-off for these calls is given here.

Tests used:
[1] = Inhibition of PKA by filter binding assay
[2] = tested on: PBMC; test: Antiproliferative activity against PHA-stimulated human PBMC assessed as inhibition of cell proliferation after 72 hrs by thymidine incorporation assay; format: cell-based
[3] = target: Dual specificity mitogen-activated protein kinase kinase 6 (Homo sapiens) (UniProt P52564); test: Inhibition of MKK6
[4] = target: Casein kinase I isoform alpha (Homo sapiens) (UniProt P48729); test: Inhibition of CK1 at 2 uM
[5] = target: Mitogen-activated protein kinase 8 (Homo sapiens) (UniProt P45983); test: Inhibition of JNK1 at 2 uM
[6] = target: Tyrosine-protein kinase Lck (Homo sapiens) (UniProt P06239); test: Inhibition of LCK at 2 uM
[7] = target: Dual specificity mitogen-activated protein kinase kinase 1 (Homo sapiens) (UniProt Q02750); test: Inhibition of Mek1 at 2 uM
[8] = target: Dual specificity mitogen-activated protein kinase kinase 2 (Homo sapiens) (UniProt P36507); test: Inhibition of MEK2 at 2 uM
[9] = target: Serine/threonine-protein kinase N2 (Homo sapiens) (UniProt Q16513); test: Inhibition of PRK2 at 2 uM
[10] = target: Rho-associated protein kinase 2 (Homo sapiens) (UniProt O75116); test: Inhibition of ROCK2 at 2 uM
[11] = Half life in Sprague-Dawley rat at 4.8 mg/kg, iv; format: ADME, organism-based; set-up: dose 4.8 mg/kg, route intravenous; details: in vivo
[12] = AUC in Sprague-Dawley rat at 4.8 mg/kg, iv; format: ADME, organism-based; set-up: dose 4.8 mg/kg, route intravenous; details: plasma
[13] = Clearance in Sprague-Dawley rat at 4.8 mg/kg, iv; format: ADME, organism-based; set-up: dose 4.8 mg/kg, route intravenous; details: in vivo
[14] = Half life in BALB/c mouse at 2 mg/kg, iv; format: ADME, organism-based; set-up: dose 2 mg/kg, route intravenous; details: in vivo
[15] = Volume of distribution at steady state in BALB/c mouse at 2 mg/kg, iv; format: ADME, organism-based; set-up: dose 2 mg/kg, route intravenous; details: in vivo, read-out: Vdss
[16] = Half life in beagle dog at 13.8 mg/kg, iv; format: ADME, organism-based, Canis lupus familiaris; set-up: dose 13.8 mg/kg, route intravenous; details: in vivo
[17] = tested on: Canis familiaris; test: AUC in beagle dog at 13.8 mg/kg, iv; format: ADME, organism-based, Canis lupus familiaris, Plasma; set-up: dose 13.8 mg/kg, route intravenous; details: in vivo
[18] = Clearance in beagle dog at 13.8 mg/kg, iv; format: ADME, organism-based, Canis lupus familiaris; set-up: dose 13.8 mg/kg, route intravenous; details: in vivo
[19] = AUC in Sprague-Dawley rat at 43 mg/kg, po; format: ADME, organism-based; set-up: dose 43 mg/kg, route oral; details: plasma
[20] = Oral bioavailability in Sprague-Dawley rat at 43 mg/kg; format: ADME, organism-based; details: in vivo
[21] = Cmax in BALB/c mouse at 40 mg/kg, po; format: ADME, organism-based; set-up: dose 40 mg/kg, route oral; details: in vivo
[22] = AUC in BALB/c mouse at 40 mg/kg, po; format: ADME, organism-based; set-up: dose 40 mg/kg, route oral; details: plasma
[23] = Cmax in beagle dog at 33 mg/kg, po; format: ADME, organism-based, Canis lupus familiaris; set-up: dose 33 mg/kg, route oral; details: in vivo
[24] = tested on: Canis familiaris; test: AUC in beagle dog at 33 mg/kg, po; format: ADME, organism-based, Canis lupus familiaris, Plasma; set-up: dose 33 mg/kg, route oral; details: in vivo
[25] = tested on: Canis familiaris; test: Oral bioavailability in beagle dog at 33 mg/kg; format: ADME, organism-based, Canis lupus familiaris; details: in vivo
[26] = Induction of human cytochrome P450; format: ADME
[27] = target: Cytochrome P450 2D6 (Homo sapiens, UniProt P10635); test: Inhibition of human CYP2D6; format: ADME
[28] = target: Cytochrome P450 1A2 (Homo sapiens, UniProt P05177); test: Inhibition of human CYP1A2; format: ADME
[29] = Plasma protein binding in rat; format: ADME, cell-free; details: read-out: PPB (converted)
[30] = Plasma protein binding in dog; format: ADME, cell-free, Canis lupus familiaris; details: read-out: PPB (converted)
[31] = tested on: Mus musculus; test: Antiarthritic activity in complete Freund's adjuvant-immunized DBA/1J mouse assessed as inhibition of type 2 collagen-induced paw inflammation at […], po bid measured on day 20; format: functional; details: 480 h, dose 2.5 mg/kg
[32] = tested on: Mus musculus; test: Antiarthritic activity in complete Freund's adjuvant-immunized DBA/1J mouse assessed as inhibition of type 2 collagen-induced paw inflammation at 10 mg/kg, po bid measured on day 20; format: functional; details: 480 h
[33] = tested on: Mus musculus; test: Antiarthritic activity in complete Freund's adjuvant-immunized DBA/1J mouse assessed as inhibition of type 2 collagen-induced bone and cartilage erosion at […], po bid measured on day 20; format: functional; details: 480 h, dose 2.5 mg/kg
[34] = tested on: Mus musculus; test: Antiarthritic activity in complete Freund's adjuvant-immunized DBA/1J mouse assessed as inhibition of type 2 collagen-induced bone and cartilage erosion at 5 mg/kg, po bid measured on day 20; format: functional; details: 480 h
[35] = tested on: Mus musculus; test: Antiarthritic activity in complete Freund's adjuvant-immunized DBA/1J mouse assessed as inhibition of type 2 collagen-induced bone and cartilage erosion at 10 mg/kg, po bid measured on day 20; format: functional; details: 480 h
[36] = target: Mitogen-activated protein kinase 11 (Homo sapiens) (UniProt Q15759); details: 100 uM
[37] = target: Cyclin-dependent kinase 5 (Homo sapiens) (UniProt Q00535); details: 2 uM
Description: Inhibition of CDK5 at 2 uM

[38] = target: Serine/threonine-protein kinase Chk1 (Homo sapiens) (UniProt O14757); details: 2 uM
Description: Inhibition of CHK1 at 2 uM

[39] = target: Epidermal growth factor receptor (Homo sapiens) (UniProt P00533); details: 2 uM
Description: Inhibition of EGFR at 2 uM

[40] = target: Mitogen-activated protein kinase 3 (Homo sapiens) (UniProt P27361); details: 2 uM
Description: Inhibition of ERK1 at 2 uM

[41] = target: Ephrin type-B receptor 4 (Homo sapiens) (UniProt P54760); details: 2 uM
Description: Inhibition of EphB4 at 2 uM

[42] = target: Inhibitor of nuclear factor kappa-B kinase subunit alpha (Homo sapiens) (UniProt O15111); details: 2 uM
Description: Inhibition of IKKa at 2 uM

[43] = target: Inhibitor of nuclear factor kappa-B kinase subunit beta (Homo sapiens) (UniProt O14920); details: 2 uM
Description: Inhibition of IKKb at 2 uM

[44] = target: Insulin receptor (Homo sapiens) (UniProt P06213); details: 2 uM
Description: Inhibition of IRTK at 2 uM

[45] = target: Dual specificity mitogen-activated protein kinase kinase 7 (Homo sapiens) (UniProt O14733); details: 2 uM
Description: Inhibition of MKK7 at 2 uM

[46] = target: Ribosomal protein S6 kinase alpha-5 (Homo sapiens) (UniProt O75582); details: 2 uM
Description: Inhibition of MSK1 at 2 uM

[47] = target: Mitogen-activated protein kinase 11 (Homo sapiens) (UniProt Q15759); details: 2 uM
Description: Inhibition of p38beta at 2 uM

[48] = target: Protein kinase C iota type (Homo sapiens) (UniProt P41743); details: 2 uM
Description: Inhibition of PKCiota at 2 uM

[49] = target: Protein kinase C theta type (Homo sapiens) (UniProt Q04759); details: 2 uM
Description: Inhibition of PKCtheta at 2 uM

[50] = target: RAF proto-oncogene serine/threonine-protein kinase (Homo sapiens) (UniProt P04049); details: 2 uM
Description: Inhibition of RAFc at 2 uM

[51] = target: Ribosomal protein S6 kinase alpha-2 (Homo sapiens) (UniProt Q15349); details: 2 uM
Description: Inhibition of Rsk3 at 2 uM

[52] = target: Angiopoietin-1 receptor (Homo sapiens) (UniProt Q02763); details: 2 uM
Description: Inhibition of Tie2 at 2 uM

Mitogen-activated protein kinase 11 (Homo sapiens), sequence (Q15759 whole entry): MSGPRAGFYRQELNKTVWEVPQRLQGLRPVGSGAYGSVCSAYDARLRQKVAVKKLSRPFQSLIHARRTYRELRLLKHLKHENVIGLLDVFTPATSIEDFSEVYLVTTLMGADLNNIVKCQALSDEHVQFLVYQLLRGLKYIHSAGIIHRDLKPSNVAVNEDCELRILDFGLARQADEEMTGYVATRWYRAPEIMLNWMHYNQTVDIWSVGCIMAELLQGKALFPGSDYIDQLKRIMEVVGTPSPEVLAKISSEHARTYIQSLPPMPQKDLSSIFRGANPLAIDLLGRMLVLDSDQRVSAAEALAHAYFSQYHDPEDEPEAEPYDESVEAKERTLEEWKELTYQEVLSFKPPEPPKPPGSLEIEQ
Dual specificity mitogen-activated protein kinase kinase 7 (Homo sapiens), sequence (O14733 whole entry): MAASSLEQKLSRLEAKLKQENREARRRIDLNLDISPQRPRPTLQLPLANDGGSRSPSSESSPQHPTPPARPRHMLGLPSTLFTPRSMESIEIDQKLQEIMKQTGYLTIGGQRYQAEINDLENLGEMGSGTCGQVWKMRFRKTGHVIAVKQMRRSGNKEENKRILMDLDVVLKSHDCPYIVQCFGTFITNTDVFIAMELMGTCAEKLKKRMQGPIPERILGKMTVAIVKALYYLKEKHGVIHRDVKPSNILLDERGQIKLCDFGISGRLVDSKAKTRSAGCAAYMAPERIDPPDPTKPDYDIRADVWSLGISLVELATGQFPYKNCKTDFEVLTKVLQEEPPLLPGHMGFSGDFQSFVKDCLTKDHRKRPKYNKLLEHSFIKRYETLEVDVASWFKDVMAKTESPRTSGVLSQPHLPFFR
Casein kinase I isoform alpha (Homo sapiens), sequence (P48729 2-337 limits assumed): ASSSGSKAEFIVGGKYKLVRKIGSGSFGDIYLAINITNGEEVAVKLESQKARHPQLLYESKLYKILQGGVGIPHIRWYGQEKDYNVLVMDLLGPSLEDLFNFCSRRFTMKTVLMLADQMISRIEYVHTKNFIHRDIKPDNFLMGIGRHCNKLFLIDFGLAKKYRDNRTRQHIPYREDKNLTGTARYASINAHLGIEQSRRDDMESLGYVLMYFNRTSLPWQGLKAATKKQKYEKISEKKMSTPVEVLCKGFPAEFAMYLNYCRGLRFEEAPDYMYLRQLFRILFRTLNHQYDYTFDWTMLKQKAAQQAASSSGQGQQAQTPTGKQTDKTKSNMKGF
Serine/threonine-protein kinase Chk1 (Homo sapiens), sequence (O14757 whole entry): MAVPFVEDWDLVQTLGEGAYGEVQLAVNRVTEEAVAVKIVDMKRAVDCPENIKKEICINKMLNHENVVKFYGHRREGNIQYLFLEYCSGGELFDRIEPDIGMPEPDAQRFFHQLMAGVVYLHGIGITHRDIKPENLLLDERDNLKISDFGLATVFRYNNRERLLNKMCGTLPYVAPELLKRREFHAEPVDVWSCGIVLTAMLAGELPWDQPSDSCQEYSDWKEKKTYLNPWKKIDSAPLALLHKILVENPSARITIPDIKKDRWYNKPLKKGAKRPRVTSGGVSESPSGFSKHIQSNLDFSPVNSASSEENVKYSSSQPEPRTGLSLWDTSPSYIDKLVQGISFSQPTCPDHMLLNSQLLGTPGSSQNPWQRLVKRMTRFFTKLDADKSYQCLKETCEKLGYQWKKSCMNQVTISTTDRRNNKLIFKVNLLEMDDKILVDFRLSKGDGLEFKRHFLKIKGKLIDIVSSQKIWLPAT
Ephrin type-B receptor 4 (Homo sapiens), sequence (P54760 whole entry): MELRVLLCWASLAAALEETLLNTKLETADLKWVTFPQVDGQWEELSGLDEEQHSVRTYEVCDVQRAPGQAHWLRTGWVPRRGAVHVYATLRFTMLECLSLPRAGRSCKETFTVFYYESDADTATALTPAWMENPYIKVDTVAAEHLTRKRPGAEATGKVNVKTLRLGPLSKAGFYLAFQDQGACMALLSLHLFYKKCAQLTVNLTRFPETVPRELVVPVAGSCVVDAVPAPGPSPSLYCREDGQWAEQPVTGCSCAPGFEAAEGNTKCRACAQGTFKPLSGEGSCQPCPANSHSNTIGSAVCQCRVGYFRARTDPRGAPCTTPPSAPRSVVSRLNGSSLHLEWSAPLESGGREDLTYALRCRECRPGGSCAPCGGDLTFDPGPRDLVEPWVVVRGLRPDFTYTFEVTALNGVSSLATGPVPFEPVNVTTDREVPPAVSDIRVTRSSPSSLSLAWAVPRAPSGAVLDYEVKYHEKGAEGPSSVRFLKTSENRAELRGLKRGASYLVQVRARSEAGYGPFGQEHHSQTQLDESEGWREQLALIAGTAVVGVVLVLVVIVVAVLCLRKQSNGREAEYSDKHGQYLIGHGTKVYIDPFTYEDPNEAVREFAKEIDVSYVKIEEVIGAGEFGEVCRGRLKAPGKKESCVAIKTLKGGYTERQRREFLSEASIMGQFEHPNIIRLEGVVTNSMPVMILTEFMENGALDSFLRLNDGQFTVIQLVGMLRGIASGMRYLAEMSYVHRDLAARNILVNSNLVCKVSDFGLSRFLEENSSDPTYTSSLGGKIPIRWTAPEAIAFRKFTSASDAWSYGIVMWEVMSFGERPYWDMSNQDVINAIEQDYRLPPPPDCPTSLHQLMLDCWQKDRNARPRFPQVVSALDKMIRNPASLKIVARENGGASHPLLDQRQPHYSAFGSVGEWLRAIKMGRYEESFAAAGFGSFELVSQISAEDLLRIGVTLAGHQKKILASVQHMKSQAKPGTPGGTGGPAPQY
Cytochrome P450 2D6, sequence (P10635 whole entry): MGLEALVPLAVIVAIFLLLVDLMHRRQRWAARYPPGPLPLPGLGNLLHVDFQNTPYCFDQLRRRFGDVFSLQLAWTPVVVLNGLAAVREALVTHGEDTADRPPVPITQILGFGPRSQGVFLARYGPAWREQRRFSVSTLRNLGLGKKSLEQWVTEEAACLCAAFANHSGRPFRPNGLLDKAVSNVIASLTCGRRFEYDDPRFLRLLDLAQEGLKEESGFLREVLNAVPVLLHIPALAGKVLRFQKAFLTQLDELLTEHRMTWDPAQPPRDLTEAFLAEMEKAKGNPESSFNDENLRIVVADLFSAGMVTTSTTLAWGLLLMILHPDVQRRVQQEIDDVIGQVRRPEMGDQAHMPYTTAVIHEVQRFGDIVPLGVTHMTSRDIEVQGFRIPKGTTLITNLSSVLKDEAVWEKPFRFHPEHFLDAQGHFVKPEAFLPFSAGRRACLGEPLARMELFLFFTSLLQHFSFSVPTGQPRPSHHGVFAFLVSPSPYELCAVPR
Ribosomal protein S6 kinase alpha-2 (Homo sapiens), sequence (Q15349 whole entry): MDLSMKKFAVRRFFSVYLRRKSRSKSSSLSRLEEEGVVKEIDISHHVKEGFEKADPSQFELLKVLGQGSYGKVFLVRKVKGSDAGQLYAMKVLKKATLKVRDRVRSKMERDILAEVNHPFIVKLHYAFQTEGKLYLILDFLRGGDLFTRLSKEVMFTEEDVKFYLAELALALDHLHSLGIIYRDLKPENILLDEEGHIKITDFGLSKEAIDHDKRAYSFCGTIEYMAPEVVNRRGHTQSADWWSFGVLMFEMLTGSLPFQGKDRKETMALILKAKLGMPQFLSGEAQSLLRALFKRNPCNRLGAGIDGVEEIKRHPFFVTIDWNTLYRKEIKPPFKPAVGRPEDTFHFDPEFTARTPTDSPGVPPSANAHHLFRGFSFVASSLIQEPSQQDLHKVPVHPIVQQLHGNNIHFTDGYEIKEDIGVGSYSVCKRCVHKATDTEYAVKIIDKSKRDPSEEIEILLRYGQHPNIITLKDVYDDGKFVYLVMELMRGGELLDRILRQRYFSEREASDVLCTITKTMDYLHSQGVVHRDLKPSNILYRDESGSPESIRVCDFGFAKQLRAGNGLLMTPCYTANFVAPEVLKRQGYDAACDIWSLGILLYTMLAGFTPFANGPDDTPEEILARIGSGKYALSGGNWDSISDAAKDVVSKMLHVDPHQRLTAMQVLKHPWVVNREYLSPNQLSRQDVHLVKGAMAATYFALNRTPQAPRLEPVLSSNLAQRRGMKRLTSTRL
Mitogen-activated protein kinase 3 (Homo sapiens), sequence (P27361 whole entry): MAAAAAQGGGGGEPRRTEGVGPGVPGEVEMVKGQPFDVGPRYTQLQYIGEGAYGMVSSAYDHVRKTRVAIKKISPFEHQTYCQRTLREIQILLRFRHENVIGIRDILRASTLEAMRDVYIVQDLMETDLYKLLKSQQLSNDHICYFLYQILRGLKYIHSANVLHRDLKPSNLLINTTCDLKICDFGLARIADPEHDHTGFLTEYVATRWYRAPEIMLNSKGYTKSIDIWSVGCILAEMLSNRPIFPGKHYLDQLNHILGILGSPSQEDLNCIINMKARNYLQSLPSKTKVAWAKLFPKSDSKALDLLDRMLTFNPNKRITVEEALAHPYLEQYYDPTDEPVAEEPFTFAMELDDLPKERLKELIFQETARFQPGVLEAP
Dual specificity mitogen-activated protein kinase kinase 6 (Homo sapiens), sequence (P52564 whole entry, canonical isoform): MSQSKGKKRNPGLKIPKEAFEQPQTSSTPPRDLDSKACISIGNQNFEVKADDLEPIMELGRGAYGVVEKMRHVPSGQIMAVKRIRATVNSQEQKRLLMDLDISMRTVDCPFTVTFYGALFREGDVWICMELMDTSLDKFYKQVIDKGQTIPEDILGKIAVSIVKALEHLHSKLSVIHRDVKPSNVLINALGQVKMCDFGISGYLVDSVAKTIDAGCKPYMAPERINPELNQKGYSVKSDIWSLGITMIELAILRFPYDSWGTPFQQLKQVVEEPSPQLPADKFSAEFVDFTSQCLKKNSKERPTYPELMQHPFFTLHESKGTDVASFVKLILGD
Mitogen-activated protein kinase 8 (Homo sapiens), sequence (P45983 whole entry): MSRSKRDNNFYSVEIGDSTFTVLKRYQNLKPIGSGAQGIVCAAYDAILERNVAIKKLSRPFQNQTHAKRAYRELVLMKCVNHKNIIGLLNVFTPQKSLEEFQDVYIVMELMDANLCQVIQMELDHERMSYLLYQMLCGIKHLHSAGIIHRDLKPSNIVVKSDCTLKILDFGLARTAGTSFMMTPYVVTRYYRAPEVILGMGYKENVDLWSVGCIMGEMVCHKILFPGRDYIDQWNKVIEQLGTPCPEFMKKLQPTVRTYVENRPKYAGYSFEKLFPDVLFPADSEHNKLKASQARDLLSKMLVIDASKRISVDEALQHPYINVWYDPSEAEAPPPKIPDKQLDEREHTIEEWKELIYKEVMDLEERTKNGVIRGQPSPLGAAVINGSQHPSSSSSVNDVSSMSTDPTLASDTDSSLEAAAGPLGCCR

With `O=c1ncn2nc(Sc3ccc(F)cc3F)ccc2c1-c1c(Cl)cccc1Cl` [NEFLAMAPIMOD] as the compound, how does the IC50 [1] read?
Its IC50 is > 5 µM.

What about the Activity [2] of the same compound?
The Activity was “Non-toxic”.

What about the inhibition [3] of the same compound?
The inhibition was “Active”.

What about the inhibition [4] of the same compound?
Its inhibition is 1%.

What about the inhibition [5] of the same compound?
The inhibition was 10%.

And the inhibition [6]?
The inhibition was 20%.

And the inhibition [7]?
Its inhibition is 5%.

And the inhibition [8]?
The inhibition was 14%.

What about the inhibition [9] of the same compound?
The inhibition was 13%.

And the inhibition [10]?
Its inhibition is 8%.

What about the half-life [11] of the same compound?
Its half-life is 1.9 h.

And the AUC [12]?
The AUC was 1260 ng·h/mL.

And the clearance [13]?
The clearance was 63 mL/min/kg.

What about the half-life [14] of the same compound?
The half-life was 2.6 h.

What about the Vd [15] of the same compound?
Its Vd is 2.2 L/kg.

What about the half-life [16] of the same compound?
Its half-life is 1.5 h.

And the AUC [17]?
The AUC was 6120 ng·h/mL.

And the clearance [18]?
The clearance was 39 mL/min/kg.

And the AUC [19]?
Its AUC is 6300 ng·h/mL.

What about the bioavailability [20] of the same compound?
Its bioavailability is 56%.

What about the Cmax [21] of the same compound?
Its Cmax is 7850 ng/mL.

And the AUC [22]?
Its AUC is 27000 ng·h/mL.

What about the Cmax [23] of the same compound?
The Cmax was 1370 ng/mL.

And the AUC [24]?
Its AUC is 4340 ng·h/mL.

And the F [25]?
The F was 69%.

And the Activity [26]?
The Activity was “Not Active”.

And the IC50 [27]?
Its IC50 is > 40 µM.

What about the IC50 [28] of the same compound?
The IC50 was > 40 µM.

What about the fraction unbound [29] of the same compound?
The fraction unbound was 0.02.

What about the fraction unbound [30] of the same compound?
Its fraction unbound is 0.08.

What about the inhibition in vivo at […] [31] of the same compound?
The inhibition in vivo at […] was 27%.

And the inhibition in vivo at 10 mg/kg [32]?
Its inhibition in vivo at 10 mg/kg is 44%.

What about the inhibition in vivo at […] [33] of the same compound?
The inhibition in vivo at […] was 35%.

What about the inhibition in vivo at 5 mg/kg [34] of the same compound?
Its inhibition in vivo at 5 mg/kg is 32%.

And the inhibition in vivo at 10 mg/kg [35]?
Its inhibition in vivo at 10 mg/kg is 39%.

What about the inhibition [36] of the same compound?
The inhibition was “inactive”.

What about the inhibition [37] of the same compound?
The inhibition was 0%.

And the inhibition [38]?
The inhibition was 0%.

And the inhibition [39]?
The inhibition was 7%.

And the inhibition [40]?
The inhibition was 0%.

And the inhibition [41]?
Its inhibition is 16%.

And the inhibition [42]?
The inhibition was 0%.

What about the inhibition [43] of the same compound?
Its inhibition is 0%.

What about the inhibition [44] of the same compound?
Its inhibition is 0%.

What about the inhibition [45] of the same compound?
Its inhibition is 0%.

And the inhibition [46]?
The inhibition was 0%.

What about the inhibition [47] of the same compound?
The inhibition was 84%.

And the inhibition [48]?
Its inhibition is 0%.

And the inhibition [49]?
Its inhibition is 0%.

And the inhibition [50]?
Its inhibition is 0%.

And the inhibition [51]?
Its inhibition is 0%.

And the inhibition [52]?
Its inhibition is 0%.
